Values of other authors, collected in paper PMC8374649, “IBI362 (LY3305677), a weekly-dose GLP-1 and glucagon receptor dual agonist, in Chinese adults with overweight or obesity: A randomised, placebo-controlled, multiple ascending dose phase 1b study” (EClinicalMedicine, 2021).

Tests used:
[1] = test system: patients with type 2 diabetes; conditions: 12-week administration; cited from earlier work
From the text: A remarkable and unexpected finding of this study was the statistically significant reduction in serum uric acid levels in participants receiving IBI362. BMI is strongly positively correlated with serum uric acid levels, and weight loss is a commonly recommended treatment for gout, a disease resulting from chronic elevation of serum uric acid, [29], [30]. Although GLP-1 receptor agonists promote weight loss, direct evidence regarding the relationship between GLP-1 receptor agonists and blood uric acid level is limited.

[2] = test system: Japanese adults with type 2 diabetes; conditions: once-daily, 48-day phase 2a study; cited from earlier work
From the text: Despite the weight loss effect of glucagon, its inherited stimulation of gluconeogenesis and glycogenolysis requires optimal balancing of GLP-1 and glucagon receptor activities for dual agonists. […] IBI362 has b ...

Substance	Plasma uric acid levels compared with placebo [1]	Weight loss and glycaemic control [2]
liraglutide (HAEGTFTSDVSSYLEGQAAKEFIAWLVRGRG; chains of the INN, looked up) [GLP-1 receptor agonist]	did not reduce plasma uric acid levels	–
Cotadutide	–	optimal weight loss and glycaemic control
